Like-named read-outs stand apart in the source and are kept apart here.
Key:
Tyrosinase = conditions: Figure 3; no reference given; read-out: Tyrosinase inhibtors IC50; cited from earlier work
clot = assay: Thrombolytic activity (clot lysis); design: species or system albino mice; conditions: 100 µL sample in DMSO, 37 °C, 3 h
Text: Blood samples were collected from albino mice and relocated to numerous cleaned and weighed-up eppendorf tubes. […] Blood serum was cast-off from these tubes and weighed in the eppendorf tubes to calculate the preliminary weight of the clot (clot weight = weight of the eppendorf with the clot minus the weight of the empty eppendorf). […] In this methodology, ABTS was used as a positive control, while water was used as a negative control. Serum was again removed and weighed in the eppendorf tubes to measure clot lysis.

[1] = target: bacterial tyrosinase (Bacillus subtilis NA2); assay: Tyrosinase inhibition, spectrophotometric L-Dopa assay; type: biochemical; conditions: for IC50: bacterial tyrosinase, L-Dopa substrate, PBS pH 6.8; for optical density at varied incubation times: incubation 10, 20 and 30 min (Figure 6)
Experimental: IC50 values were obtained using a spectrophotometer assay. The protocol involved the addition of 2 mL of 1/2 mM L-Dopa in a 67.0 mM PBS (phosphate buffer saline) solution of pH 6.8 to the 800 µL solution of target molecules in DMSO. A total of 0.1 mL of the enzyme solution (tyrosinase) was dissolved in this mixture, and the starting rate of linear increase was measured in the optical density after 10, 20, and 30 min of incubation time, respectively. Thus, optical density increases or decreases with the presence of dopachrome.
The inhibition potential of these derivatives was also studied at varied incubation times.

Hemolytic activity = type: cell-based, albino mice; conditions: albino, mouse, red blood cells (RBC pellet from blood), pH 7.4; 20 µL sample (10 mg/mL) with 180 µL RBC, 37 °C, half an hour
Experimental: A blood sample of 5 mL of volume from albino mice was taken and subjected to centrifugation at 1000 rpm for 5 min. RBC pellets were secluded and splashed 3–4 times using chilled buffer solutions that had pH values of 7.4, such as the phosphate buffer saline (PBS). A solution sample in a volume of 20 µL (10 mg/mL) was taken and added to a 180 µL RBC pellet. […] A sample tube was taken from the incubator and lowered to room temperature in an ice bath for 5 min. The sample was again centrifuged at 13,000 rpm for 5 min. A total of 100 µL of supernatant was collected from each tube and diluted with the ice-cold phosphate buffered saline.

[2] = target: bacterial tyrosinase (Bacillus subtilis NA2); design: method as in PMID 36142889; conditions: reference standard; read-out: IC50 (µM) Tyrosinase Inhibition; cited from earlier work

O=C(c1cccc(Cl)c1[N+](=O)[O-])N1CCN(Cc2ccc(F)cc2)CC1 [Compound 2e]
IC50 (Tyrosinase): 180 nM

O=C(c1ccccc1)N1CCN(Cc2ccc(F)cc2)CC1 [Compound 2d]
IC50 (Tyrosinase): 13300 nM

Cc1ccc(S(=O)(=O)N2CCN(C(=S)SCC(=O)Nc3ccc(C)cc3C)CC2)cc1 [Compound 4g, 2-((2,4-Dimethylphenyl)amino)-2-oxoethyl 4-tosylpiperazine-1-carbodithioate]
melting point: 185 °C | % Thrombolysis (clot): 55.26 ± 0.15% | IC50 [1]: 7.24 ± 0.15 µM | optical density at varied incubation times [1]: linear decrease in optical density | hemolysis at 0.5 h, 1 mg/mL (Hemolytic activity): 1.53 ± 0.35%

Cc1ccc(S(=O)(=O)N2CCN(C(=S)SCC(=O)Nc3ccc(Cl)c(Cl)c3)CC2)cc1 [Compound 4i, 2-((3,4-Dichlorophenyl)amino)-2-oxoethyl 4-tosylpiperazine-1-carbodithioate]
% Thrombolysis (clot): 54.38 ± 0.53% | IC50 [1]: 19.2 ± 0.47 µM | optical density at varied incubation times [1]: linear decrease in optical density | hemolysis at 0.5 h, 1 mg/mL (Hemolytic activity): 12.8 ± 0.35%

COc1ccc(NC(=O)CSC(=S)N2CCN(S(=O)(=O)c3ccc(C)cc3)CC2)cc1 [Compound 4d, 2-((4-Methoxyphenyl)amino)-2-oxoethyl 4-tosylpiperazine-1-carbodithioate]
melting point: 175 °C | % Thrombolysis (clot): 52.4 ± 0.2% | IC50 [1]: 6.88 ± 0.11 µM | hemolysis at 0.5 h, 1 mg/mL (Hemolytic activity): 15.6 ± 0.5%

Cc1ccc(S(=O)(=O)N2CCN(C(=S)SCC(=O)Nc3ccccc3Cl)CC2)cc1 [Compound 4b, 2-((2-Chlorophenyl)amino)-2-oxoethyl 4-tosylpiperazine-1-carbodithioate]
melting point: 180 °C | % Thrombolysis (clot): 54.43 ± 0.23% | IC50 [1]: 8.01 ± 0.11 µM | optical density at varied incubation times [1]: highest optical density | hemolysis at 0.5 h, 1 mg/mL (Hemolytic activity): 0.29 ± 0.01%

Cc1ccc(S(=O)(=O)N2CCN(C(=S)SCC(=O)Nc3ccc(C)c(C)c3)CC2)cc1 [Compound 4j, 2-((3,4-Dimethylphenyl)amino)-2-oxoethyl 4-tosylpiperazine-1-carbodithioate]
% Thrombolysis (clot): 56.6 ± 0.23% | IC50 [1]: 11.11 ± 0.1 µM | optical density at varied incubation times [1]: linear decrease in optical density | hemolysis at 0.5 h, 1 mg/mL (Hemolytic activity): 2.56 ± 0.3%

Cc1ccc(S(=O)(=O)N2CCN(C(=S)SCC(=O)Nc3ccc(Cl)cc3)CC2)cc1 [Compound 4e, 2-((4-Chlorophenyl)amino)-2-oxoethyl 4-tosylpiperazine-1-carbodithioate]
% Thrombolysis (clot): 67.3 ± 0.2% | IC50 [1]: 11.1 ± 0.4 µM | hemolysis at 0.5 h, 1 mg/mL (Hemolytic activity): 7.5 ± 0.4%

COc1cccc(/C=C/C(=O)N2CCN(c3ccc(F)c(Cl)c3)CC2)c1Cl [Compound 2h]
IC50 (Tyrosinase): 120 nM

Cc1ccc(S(=O)(=O)N2CCN(C(=S)SCC(=O)Nc3ccc(F)cc3)CC2)cc1 [Compound 4f, 2-((4-Fluorophenyl)amino)-2-oxoethyl 4-tosylpiperazine-1-carbodithioate]
% Thrombolysis (clot): 56.53 ± 0.55% | IC50 [1]: 10.3 ± 0.26 µM | hemolysis at 0.5 h, 1 mg/mL (Hemolytic activity): 4.53 ± 0.35%

O=S(=O)(c1ccc(CN2CCN(c3ccccc3)CC2)cc1)N1CCCCC1 [Compound 2f]
IC50 (Tyrosinase): 60 nM

Cc1ccc(NC(=O)CCCN2CCN(C/C=C/c3ccccc3)CC2)c(C)c1 [Compound 2g]
IC50 (Tyrosinase): 10 nM

COc1ccc(OC)c(NC(=O)CSC(=S)N2CCN(S(=O)(=O)c3ccc(C)cc3)CC2)c1 [Compound 4h, 2-((2,5-Dimethoxyphenyl)amino)-2-oxoethyl 4-tosylpiperazine-1-carbodithioate]
melting point: 190 °C | % Thrombolysis (clot): 60.83 ± 0.14% | IC50 [1]: 13.25 ± 0.11 µM | optical density at varied incubation times [1]: linear decrease in optical density | hemolysis at 0.5 h, 1 mg/mL (Hemolytic activity): 11.3 ± 0.22%

O=C1O[C@H]([C@@H](O)CO)C(O)=C1O [Ascorbic Acid]
IC50 [2]: 11.5 ± 1 µM

Cc1ccc(S(=O)(=O)N2CCN(C(=S)SCC(=O)Nc3ccccc3)CC2)cc1 [Compound 4a, 2-Oxo-2-(phenylamino)ethyl 4-tosylpiperazine-1-carbodithioate]
% Thrombolysis (clot): 62.3 ± 0.41% | IC50 [1]: 34.8 ± 0.99 µM | optical density at varied incubation times [1]: linear decrease in optical density | hemolysis at 0.5 h, 1 mg/mL (Hemolytic activity): 0.55 ± 0.03%

O=c1cc(CO)occ1O [Kojic Acid, Kojic acid, reference compound]
IC50 [1]: 30.3 ± 0.75 µM

Cc1ccc(S(=O)(=O)N2CCN(C(=S)SCC(=O)Nc3ccccc3F)CC2)cc1 [Compound 4c, 2-((2-Fluorophenyl)amino)-2-oxoethyl 4-tosylpiperazine-1-carbodithioate]
% Thrombolysis (clot): 56.76 ± 0.15% | IC50 [1]: 8.1 ± 0.3 µM | hemolysis at 0.5 h, 1 mg/mL (Hemolytic activity): 6.6 ± 0.37%

CCn1c(=NN=c2sc3cc(S(=O)(=O)O)ccc3n2CC)sc2cc(S(=O)(=O)O)ccc21 [ABTS, 2,2′-azino-bis(3-ethylbenzothiazoline-6-sulfonic acid), reference compound]
% Thrombolysis (clot): 80%
